Reference: patent US11274106B2, “Topoisomerase inhibitors with antibacterial and anticancer activity” (THE BOARD OF TRUSTEES OF THE UNIVERSITY OF ILLINOIS, priority 2017, dated 2022)
≈ marks a conversion by molar mass, not a printed value. Entries after “also recorded” stand apart in the source; their conditions may differ. Where two headings read alike, the source gives them in different places.

Tests used:
[1] = tested on: MDA-MB-231 triple negative breast cancer cells; experiment: Antiproliferative SRB assay, MDA-MB-231; assay type: cell-based; conditions: for IC50: SRB assay, mean ± SEM
Protocol: FIG. 1. […] Cell death measured by SRB assay after 72 hour of compound exposure (n≥3 biological replicates, error bars show SEM). IC50 values given as mean±SEM from ≥3 biological replicates.
To investigate the feasibility of developing a class of antitumor antibiotics based upon the DNM scaffold, the ability of the DNM to exert an antiproliferative effect against MDA-MB-231 breast cancer cells was evaluated.

[2] = tested on: E. coli; experiment: Antibacterial MIC, microbroth dilution, E. coli; assay type: cell-based
Protocol: To investigate this possibility, the antibacterial effects of the DNM derivatives was assessed against strains of E. coli, S. aureus, and MRSA using the microbroth dilution method (Table 2).

[3] = tested on: ES-2; experiment: Antiproliferative SRB assay, ES-2; assay type: cell-based; conditions: Homo sapiens, ES-2, 72 h, Cervical cancer (footnote f), mean ± SEM
From the text: Topoisomerase inhibitors such as DOX are used as single agent and in combination therapy to treat a wide-range of cancer types.

[4] = biological target: Top2α (Homo sapiens, UniProt P11388); experiment: Top2α kDNA decatenation assay; assay type: biochemical; conditions: gel electrophoresis, FIG. 3a
Sequence of Top2α (P11388 whole entry): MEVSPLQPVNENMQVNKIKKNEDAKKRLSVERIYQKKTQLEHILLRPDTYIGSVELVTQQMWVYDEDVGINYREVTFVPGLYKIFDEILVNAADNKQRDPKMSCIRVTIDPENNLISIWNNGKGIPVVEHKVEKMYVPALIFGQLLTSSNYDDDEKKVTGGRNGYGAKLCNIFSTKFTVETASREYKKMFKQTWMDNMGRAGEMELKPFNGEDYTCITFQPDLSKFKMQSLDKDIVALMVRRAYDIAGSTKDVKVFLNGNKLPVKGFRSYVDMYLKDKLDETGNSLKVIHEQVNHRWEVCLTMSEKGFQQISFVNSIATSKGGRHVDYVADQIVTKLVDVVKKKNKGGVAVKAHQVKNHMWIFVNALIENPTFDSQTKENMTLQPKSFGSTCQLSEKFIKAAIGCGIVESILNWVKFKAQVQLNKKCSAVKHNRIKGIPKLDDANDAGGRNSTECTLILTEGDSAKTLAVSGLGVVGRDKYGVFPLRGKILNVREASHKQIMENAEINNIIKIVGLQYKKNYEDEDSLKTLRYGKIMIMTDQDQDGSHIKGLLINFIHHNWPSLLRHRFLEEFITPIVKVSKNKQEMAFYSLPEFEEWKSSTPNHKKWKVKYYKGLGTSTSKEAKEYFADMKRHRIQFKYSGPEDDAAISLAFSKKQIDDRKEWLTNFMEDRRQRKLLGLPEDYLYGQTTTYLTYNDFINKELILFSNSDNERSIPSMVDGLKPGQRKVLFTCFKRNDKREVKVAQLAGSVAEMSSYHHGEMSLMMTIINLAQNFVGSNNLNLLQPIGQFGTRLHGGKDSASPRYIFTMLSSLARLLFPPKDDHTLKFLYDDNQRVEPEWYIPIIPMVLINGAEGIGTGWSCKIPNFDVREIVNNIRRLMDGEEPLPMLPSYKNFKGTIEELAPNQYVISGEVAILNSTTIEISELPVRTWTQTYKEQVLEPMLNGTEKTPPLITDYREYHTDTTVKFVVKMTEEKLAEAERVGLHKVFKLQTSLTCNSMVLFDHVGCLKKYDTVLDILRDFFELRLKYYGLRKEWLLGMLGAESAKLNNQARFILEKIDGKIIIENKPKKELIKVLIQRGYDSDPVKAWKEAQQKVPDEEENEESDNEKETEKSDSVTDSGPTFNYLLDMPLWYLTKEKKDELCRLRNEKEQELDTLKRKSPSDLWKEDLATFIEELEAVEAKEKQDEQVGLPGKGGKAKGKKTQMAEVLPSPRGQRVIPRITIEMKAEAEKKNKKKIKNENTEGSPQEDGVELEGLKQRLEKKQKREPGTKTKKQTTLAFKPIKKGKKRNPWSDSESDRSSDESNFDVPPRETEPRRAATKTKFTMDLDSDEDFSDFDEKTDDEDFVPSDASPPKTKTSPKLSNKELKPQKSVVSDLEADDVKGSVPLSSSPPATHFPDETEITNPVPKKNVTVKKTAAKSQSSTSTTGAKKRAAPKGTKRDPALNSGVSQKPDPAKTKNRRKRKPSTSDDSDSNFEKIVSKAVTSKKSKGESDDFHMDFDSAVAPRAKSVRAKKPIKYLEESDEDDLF
From the text: (§1) FIG. 3. DNM derivatives are dual Top1/Top2 inhibitors with different modes of inhibition. (a) Inhibition of decatenating ability of Top2α with increasing concentrations of ETP, 6DNM-NH3, 6DNM-Pyr, and Ph-6DNM-NH3. K, kinetoplast DNA; OC, open circular; R, relaxed. (b) Inhibition of relaxing ability of Top1 with increasing concentrations of CPT, 6DNM-NH3, 6DNM-Pyr, and Ph-6DNM-NH3. R, relaxed; S, supercoiled. (c) Detection of Top2a-DNA using the ICE Assay. Genomic DNA ([…]) of H460 cells treated with drugs (50 μM, 30 min) was applied to nitrocellulose membrane and immunoblotted for Top2a. (d) Detection of Top1-DNA adducts using ICE Assay. Same procedure as (c) using 1 μg of DNA. (e) Inhibition of ETP-induced poisoning of Top2a. H460 cells treated with indicated concentrations of inhibitor for 30 min prior to treatment with ETP (50 μM). Detection of Top2α as in (c).
FIG. 9. Mechanism of action studies: Topoisomerases form transient covalent complexes with DNA to modify DNA topology. Ph6DNM-NH3 and 6DNM-NH3 inhibit bacterial DNA gyrase and human topoisomerase II in vitro.
The ability of Ph-6DNM-NH3, 6DNM-NH3, and 6DNM-Pyr to inhibit Top2α was assessed using a decatenation assay. In this assay, Top2α is incubated with kinetoplast DNA (kDNA), a large network of catenated minicircles and maxicircles of DNA. As Top2α decatenates the kDNA, it releases supercoiled and relaxed DNA minicircles that are easily separated from the kDNA by gel electrophoresis.

[5] = biological target: T1, Top1 (Homo sapiens, UniProt P11387); experiment: Top1 DNA relaxation assay (pBR322); assay type: biochemical; conditions: for Inhibition of Top1 relaxation: supercoiled pBR322, FIG. 3b
T1 sequence (P11387 1-765): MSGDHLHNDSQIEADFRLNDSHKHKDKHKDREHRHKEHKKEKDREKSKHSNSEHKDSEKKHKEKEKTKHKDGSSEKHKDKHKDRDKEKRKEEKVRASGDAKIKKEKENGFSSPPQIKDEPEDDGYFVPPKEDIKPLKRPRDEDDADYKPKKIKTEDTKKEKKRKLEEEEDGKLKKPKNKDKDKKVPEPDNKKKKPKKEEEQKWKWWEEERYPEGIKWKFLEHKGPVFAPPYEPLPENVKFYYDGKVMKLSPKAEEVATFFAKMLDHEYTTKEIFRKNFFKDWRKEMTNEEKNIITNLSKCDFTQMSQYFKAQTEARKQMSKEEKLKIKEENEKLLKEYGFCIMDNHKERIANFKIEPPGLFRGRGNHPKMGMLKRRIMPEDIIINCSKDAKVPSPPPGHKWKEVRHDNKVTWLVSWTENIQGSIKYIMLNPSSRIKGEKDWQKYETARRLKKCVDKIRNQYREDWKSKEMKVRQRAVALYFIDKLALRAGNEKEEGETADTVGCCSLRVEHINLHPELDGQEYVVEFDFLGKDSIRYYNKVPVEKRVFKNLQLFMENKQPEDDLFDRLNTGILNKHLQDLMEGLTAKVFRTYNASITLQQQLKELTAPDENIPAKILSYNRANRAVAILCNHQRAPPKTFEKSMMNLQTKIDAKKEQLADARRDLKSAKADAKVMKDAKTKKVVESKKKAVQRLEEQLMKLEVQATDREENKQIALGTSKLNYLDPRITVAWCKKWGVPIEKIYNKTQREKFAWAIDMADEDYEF
From the text: as §1
To further investigate any mechanistic differences between these structurally related DNM analogues they were also evaluated against the other clinically-targeted mammalian topoisomerase, Top1, using a DNA relaxation assay in which purified Top1 relaxes supercoiled pBR322 and the two forms are separated by agarose gel electrophoresis.

[6] = biological target: T1, Top1; experiment: Top1 degradation by Western blot, BT-474; assay type: cell-based; conditions: 50 μM for 2, 4, and 6 hours, then 30-minute drug-free media
Protocol: (§2) FIG. 4. Level of Top1-degradation predicts cell line sensitivity. (a) Cells treated with 25 μM of compound for indicated times followed by a 30 minute incubation with drug-free media. Cells were lysed with RIPA and Top1 levels assessed by Western Blot. (b) Degradation of Top1 results in a right-ward shift in the dose-response curve. Effect is most pronounced in Top1-poisons (Ph-6DNM-NH3, CPT) than Top1 catalytic inhibitor (6DNM-Pyr). Cell death measured by SRB assay after 72 hour of compound exposure (n≥3 biological replicates, error bars show SEM).
(§3) This difference in mechanism of action between Ph-6DNM-NH3 and 6DNM-Pyr may provide an explanation of the differences in cell line sensitivities between the different DNM derivatives. […] This downregulation serves as a resistance mechanism and the level of Top1 degradation is correlated with reduced sensitivity to CPT. To determine if a similar mechanism is responsible for the reduced sensitivity to Ph-6DNM-NH3 and its derivatives in certain cell lines, the effects of Ph-6DNM-NH3 and 6DNM-Pyr were compared to that of CPT in […] and BT-474, two cancer cell lines known to be deficient and proficient in Top1 degradation, respectively. Cells were treated with 50 μM Ph-6DNM-NH3, 6DNM-Pyr, or CPT for 2, 4, and 6 hours. Following a 30-minute incubation with drug-free media to allow for the reversal of any Top1cc formed, cells were lysed and Top1 concentrations assessed by Western blot (FIG. 4a).

[7] = biological target: T1, Top1; experiment: Top1 degradation by Western blot, MDA-MB-231; assay type: cell-based; parameters: dose or concentration left out as unconfirmed; conditions: 4, and 6 hours, then 30-minute drug-free media
Protocol: as §2, §3

[8] = Homo sapiens, MDA-MB-231, 72 h, Breast cancer, read-out: 72 hour IC50, MDA-MB-231

Cc1cc(=O)n2c3c(c4c(cc13)c1ccccc1c(=O)n4C)OCC2CN (stereo not drawn) [Compound 15]
IC50 [1, 8]: 0.03 ± 0.006 µM
Improvement in potency relative to 6DNM-NH3 ([1]; MDA-MB-231, Table 1): 4.5 fold
IC50 ([1]; 72 hour compound exposure, read-out: MDA-MB-231 IC50): 0.048 ± 0.008 µM
E. coli MIC [2]: 0.25 µg/mL
IC50 [3]: 0.028 ± 0.006 µM
Inhibition of decatenating function of Top2α ([4]; listed as Ph-6DNM-NH3): inhibit the decatenating function of Top2α in a dose-dependent manner; also recorded: the least active derivative in this in vitro assay
Fold less potent Top1 inhibitor than 6DNM-Pyr ([5]; DNA relaxation assay): more than 20 fold
Inhibition of Top1 relaxation [5]: approximately equipotent to the known Top1 inhibitor camptothecin
Top1 levels by Western blot in BT-474 [6]: time-dependent decrease in the levels of Top1
Top1 levels by Western blot in MDA-MB-231 [7]: minimal differences in Top1 relative to untreated cells

Cc1cc(=O)n(C)c2c3c4c(cc12)c(C)cc(=O)n4C(CN1CCCC1)CO3 (stereo not drawn) [Compound 20]
IC50 [1, 8]: 0.014 ± 0.001 µM
IC50 ([1]; Homo sapiens, MDA-MB-231, 72 h, 72 hour compound exposure, read-out: MDA-MB-231 IC50): 0.014 ± 0.001 µM
MIC ([2]; Escherichia coli): 1 µg/mL (≈ 2.64 µM)
IC50 [3]: 0.017 ± 0.004 µM
Inhibition of decatenating function of Top2α ([4]; listed as 6DNM-Pyr): inhibit the decatenating function of Top2α in a dose-dependent manner; also recorded: inhibiting Top2α function at lower concentrations than 6DNM-NH3
Inhibition of Top1 relaxation [5]: inhibit relaxation at submicromolar concentrations
Top1 levels by Western blot in BT-474 [6]: minimal effect
Top1 levels by Western blot in MDA-MB-231 [7]: minimal differences in Top1 relative to untreated cells
